{"source": "patent US10449200B2", "about": "“Combined inhibition of the vitamin D receptor and poly(ADP) ribose polymerase (PARP) in the treatment of cancer” (Institute for Cancer Research, priority 2014, dated 2019)", "key": {"BxPC3 cells [1]": {"test_system": "BxPC3 cells", "assay": "Rucaparib clonogenic assay", "assay_type": "cell-based", "conditions": "Homo sapiens", "description": "(§1) Cell viability assays. For clonogenic assays, 1000 cells per well were seeded into 6 well plates on day 0. Cells were treated with gemcitabine at various doses on day 1 for 24 hours, Gemcitabine was washed out on day 2, and cells were allowed to grow for a subsequent 10 days before being fixed (10% methanol+10% acetic acid) and stained with crystal violet (0.4% in 20% ethanol) for colony counting and quantitation. For Rucaparib clonogenic assays, the drug was added at various doses 24 hours after cell plating, and cells were allowed to grow for a subsequent 10 days in the presence of Rucaparib. For TSA clonogenic assays, the drug was added for 4 hours prior to addition of gemcitabine or vehicle for another 18 hours before drugs were washed away, and cells were allowed to grow in drug-free medium for 10 days.\n(§2) BxPC3 and Panc1 cells were transfected with control, VDR, and BRCA1 siRNAs and their sensitivity to Rucaparib treatment was compared by clonogenic survival. […] For BXPC3 cells, the IC50s after knockdown of BRCA1 and VDR were 1 and 5 uM, respectively (FIG. 6, A) compared to the control IC50 of 9 μM."}, "Panc1 cells": {"test_system": "Panc1 cells", "assay": "Rucaparib clonogenic assay", "assay_type": "cell-based", "conditions": "Homo sapiens", "description": "as §1, §2"}, "BxPC3 cells [2]": {"test_system": "BxPC3 cells", "assay": "Immunofluorescence of DNA damage foci (phospho-γH2AX, Rad51, 53BP1) after gemcitabine", "assay_type": "cell-based, human", "conditions": "BxPC3 VDRkd, TSA (500 nM) treatment, 4 hrs in gemcitabine (50 nM)", "description": "For Immunofluorescence, cells were plated onto coverslips 24 hours pre-gemcitabine treatment. At different timepoints post gemcitabine treatment, cells were permeablized, fixed (4% paraformaldehyde) and stained. Antibodies to γH2AX (Millipore; 05-636), Rad51 (a gift), and 53BP1 were used. Alexa Fluor-conjugated (488, 555, and 647 nm) secondary antibodies (Molecular probes; A-11029, A-21428, A-21247) were used at a final concentration of 1 and nuclei counterstained with DAPI. Images were captured using a 40× or 63× high NA objective mounted on a semi-automated inverted microscope (Nikon TEi) with a charge-coupled device camera (Photometrics1394) using Nikon Elements 2.0. Exposure times for antibodies were optimized for control samples and identical exposure times used for the experimental samples. Images were quantitated and analyzed using Nikon Elements 2.0. Confocal images were taken using a Leica TCS-SP8 microscope controlled by LAS software (Leica Microsystems).\nIt was investigated if these repair pathways were abrogated after VDR knockdown by staining for foci formation by phospho-γH2AX, Rad51, and 53BP1, and measuring intensities after gemcitabine treatment (FIGS. 3, 4, and 5). BxPC3 (high VDR expression) and Panc1 (low VDR expression) cells were treated with gemcitabine (50 nM) for 2, 4, 8, and 18 hours, and fixed and stained for phospho-γH2AX, 53BP1, and Rad51. Foci quantitation included counting of nuclei with >5 foci and a separate measurement of the sum intensities of foci that were averaged for 5 separate immunofluorescence experiments. […] Weak but detectable phospho-γH2AX foci were visible within 4 hours of gemcitabine treatment in BxPC3 cells while it took 18 hours for foci to form in Panc1 cells (FIG. 3, A). Similarly, Rad51 foci were visible after 8 hours of gemcitabine treatment in BxPC3 cells compared to 18 hours in Panc1 cells (FIG. 3, A, FIG. 4, and FIG. 5)."}}}
{"smiles": "CNCc1ccc(-c2[nH]c3cc(F)cc4c3c2CCNC4=O)cc1", "note": "[Rucaparib]", "values": [{"measurement": "IC50", "setting": "BxPC3 cells [1]; BXPC-3, BXPC3, knockdown of BRCA1 (siRNA)", "result": 1, "unit": "µM"}, {"measurement": "IC50", "setting": "BxPC3 cells [1]; BXPC-3, BXPC3, knockdown of VDR (siRNA)", "result": 5, "unit": "µM"}, {"measurement": "IC50", "setting": "BxPC3 cells [1]; BXPC-3, BxPC3, control siRNA", "result": 9, "unit": "µM"}, {"measurement": "IC50", "setting": "Panc1 cells; PANC-1, Panc1, control siRNA", "result": 4, "unit": "µM"}, {"measurement": "IC50", "setting": "Panc1 cells; PANC-1, Panc1, knockdown of BRCA1 (siRNA)", "result": 0.0035, "unit": "µM"}, {"measurement": "IC50", "setting": "Panc1 cells; PANC-1, Panc1, knockdown of VDR (siRNA)", "result": 0.4, "unit": "µM"}]}
{"smiles": "CC(/C=C/C(=O)NO)=C\\[C@@H](C)C(=O)c1ccc(N(C)C)cc1", "note": "[TSA, trichostatin A]", "values": [{"measurement": "cells exhibiting Rad51 foci", "setting": "BxPC3 cells [2]", "result": 89, "unit": "%"}]}
